Numbering of substitutions follows the chain as printed.
Legend:
[1] = system: HCMV; parameters: method as in PMID 12121906; conditions: HCMV replication in vitro; cited from earlier work
[2] = system: HCMV strains resistant to ganciclovir, foscarnet and cidofovir; parameters: method as in PMID 16962820; conditions: cited from earlier work
[3] = target: T1, UL97 D456A (Human cytomegalovirus, UniProt Q68101, D456A); assay: UL97 autophosphorylation protein kinase assay, D456A; type: biochemical; conditions: D456A mutant
T1 construct: PCR reaction to generate the full length UL97; honey bee melittin secretion signal (N); made in house; host or cells: Sf21 insect cells, recombinant baculovirus (pMelBac C)
T1 sequence (Q68101 1-707 D456A): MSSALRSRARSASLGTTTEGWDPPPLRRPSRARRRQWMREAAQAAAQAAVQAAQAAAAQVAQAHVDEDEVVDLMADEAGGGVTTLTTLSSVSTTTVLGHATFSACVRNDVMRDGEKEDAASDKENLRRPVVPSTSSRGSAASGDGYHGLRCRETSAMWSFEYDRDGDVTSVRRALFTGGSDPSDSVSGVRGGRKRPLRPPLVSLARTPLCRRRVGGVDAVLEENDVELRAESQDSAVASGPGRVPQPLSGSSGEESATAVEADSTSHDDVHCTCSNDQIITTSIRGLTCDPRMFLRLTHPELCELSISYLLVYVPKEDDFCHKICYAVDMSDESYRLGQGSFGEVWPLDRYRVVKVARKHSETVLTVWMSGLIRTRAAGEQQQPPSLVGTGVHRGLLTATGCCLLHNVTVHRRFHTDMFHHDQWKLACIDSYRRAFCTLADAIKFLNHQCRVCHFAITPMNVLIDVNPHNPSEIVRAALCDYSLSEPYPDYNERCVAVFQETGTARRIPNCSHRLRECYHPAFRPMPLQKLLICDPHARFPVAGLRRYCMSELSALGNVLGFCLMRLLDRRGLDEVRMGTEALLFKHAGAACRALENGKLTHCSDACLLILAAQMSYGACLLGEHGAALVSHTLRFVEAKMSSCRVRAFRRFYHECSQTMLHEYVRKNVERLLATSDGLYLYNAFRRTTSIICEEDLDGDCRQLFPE
Protocol: (§1) Analysis of the autophosphorylation of wild type and mutant UL97 protein species was performed by a standard protein kinase assay as previously described (46). Briefly, purified protein was added to 2× protein kinase buffer (100 mM Tris HCl, pH9.0, 20 mM MgCl2, 10 μM ATP, 4 mM DTT, 2 M NaCl) and 370 KBq [γ^32P] ATP (Amersham), made up to 20 μl with SDW and incubated at 37°C. The reactions were terminated by the addition of 2× SDS sample buffer followed by boiling for 3 minutes. The amount of radiolabelled phosphate incorporated by autophosphorylation was analysed by SDS-PAGE and measured using the Biorad Mulitanalyst. The protein kinase assays were initially performed for 2 to 60 minutes to determine the maximum rate of phosphate incorporation, all assays were then performed at the maximum rate which equated to 5 minutes.
(§2) Enzyme kinetic analysis was performed on the purified wild type and mutant UL97 protein species as above using increasing concentrations of ATP (2 μM to 20 μM). The amount of incorporated radiolabelled phosphate was plotted against the concentration of ATP in a Lineweaver Burke plot to determine the Km for ATP for each UL97 species. […]

[4] = target: T2, UL97 H662L (Human cytomegalovirus, UniProt Q68101, H662L); assay: UL97 autophosphorylation protein kinase assay, H662L; type: biochemical; conditions: H662L mutant
T2 construct: PCR reaction to generate the full length UL97; honey bee melittin secretion signal (N); made in house; host or cells: Sf21 insect cells, recombinant baculovirus (pMelBac C)
T2 sequence (Q68101 1-707 H662L): T1 sequence (Q68101 1-707 D456A) with A456D, H662L
Protocol: as §1, §2

Structure (SMILES): CC(C)Nc1nc2cc(Cl)c(Cl)cc2n1[C@H]1O[C@@H](CO)[C@H](O)[C@@H]1O [maribavir, 5,6-dichloro-2-(isopropylamino)-1-beta-L-ribofuranosyl-1H-benzimidazole]
- IC50 fold lower than that observed for GCV [1]: 4-to 10 fold
- activity against resistant strains [2]: active
- IC50 [3]: 34 nM
- IC50 [4]: 40 nM
